# Assay results from patent publication US8846639B2, “Oligomeric compounds comprising bicyclic nucleosides and having reduced toxicity” (Isis Pharmaceutical, Inc., priority 2008, dated 2014).
# “And” between values parts separate entries of the source, which are not always exact repeats. Equal entries are not always repeated.
# Columns and labels:
# [1] = test system: PTEN RNA; experiment: PTEN RNA in liver (Example 15 in vivo study); parameters: species or system mice; details: 72 h, compared to PBS control
# Procedure: (§1) Six week old male Balb/c mice (Jackson Laboratory, Bar Harbor, Me.) were administered a single intraperitoneal (i.p) injection of oligomers as set forth in the table below.
# (§2) Mice were divided into 9 groups, with 4 mice in each group. The mice of 8 groups received a single dose, administered i.p., of one of the above oligomeric compounds at a dose of 100, 32, 10, or 3.2 mg/kg. The final group was dosed with phosphate buffered saline (PBS) as a control. The mice were sacrificed 72 hours after administration. Antisense activity was determined by measuring PTEN RNA in liver.
# [2] = Serum ALT, individual animals (Example 15); type: in vivo, mice; details: for ALT levels - Individual animals: serum, four animals
# Procedure: as §2
# [3] = Body weight at sacrifice relative to pre-dose (Example 15); type: in vivo, mice; details: for % of pre-dose weight: 72 h, PBS = 99
# Procedure: as §2
# (§3) Body weight was measured before treatment and again at sacrifice 72 hours after treatment.
# [4] = Spleen weight as a measure of inflammatory response (Example 15); type: in vivo, mice; details: for spleen weight, % Control: relative to PBS control
# Procedure: as §2
# (§4) Spleens were weighed as a measure of inflammatory response.
# [5] = test system: PTEN RNA; experiment: PTEN RNA in liver (Example 16 in vivo study); parameters: species or system mice; details: for % Reduction PTEN RNA: liver, 72 h, compared to PBS control; for ED50: PTEN RNA in liver
# Procedure: as §1
# (§5) Mice were divided into 17 groups, with 4 mice in each group. The mice of 16 groups received a single dose, administered i.p., of one of the above oligomeric compounds at a dose of 100, 32, 10, or 3.2 mg/kg. The final group was dosed with phosphate buffered saline (PBS) as a control. The mice were sacrificed 72 hours after administration. Antisense activity was determined by measuring PTEN RNA in liver and is expressed as % reduction compared to PBS control mice.
# [6] = Serum ALT, individual animals (Example 16); type: in vivo, mice; details: four animals
# Procedure: as §5
# Toxicity was assessed by measuring alanine aminotranferease (ALT) in serum.
# [7] = Body weight at sacrifice relative to pre-dose (Example 16); type: in vivo, mice; details: 72 h, PBS = 102
# Procedure: as §5, §3
# [8] = Spleen weight as a measure of inflammatory response (Example 16); type: in vivo, mice; details: relative to PBS control
# Procedure: as §5, §4
Substance,% Reduction PTEN RNA ([1]; 3.2 mg/kg single i.p.) [%],% Reduction PTEN RNA ([1]; 10 mg/kg single i.p.) [%],% Reduction PTEN RNA ([1]; 32 mg/kg single i.p.) [%],% Reduction PTEN RNA ([1]; 100 mg/kg single i.p.) [%],ALT levels - Individual animals ([2]; 3.2 mg/kg),ALT levels - Individual animals ([2]; 10 mg/kg),ALT levels - Individual animals ([2]; 32 mg/kg),ALT levels - Individual animals ([2]; 100 mg/kg),% of pre-dose weight ([3]; 3.2 mg/kg) [%],% of pre-dose weight ([3]; 10 mg/kg) [%],% of pre-dose weight ([3]; 32 mg/kg) [%],% of pre-dose weight ([3]; 100 mg/kg) [%],"spleen weight, % Control ([4]; 3.2 mg/kg) [%]","spleen weight, % Control ([4]; 10 mg/kg) [%]","spleen weight, % Control ([4]; 32 mg/kg) [%]","spleen weight, % Control ([4]; 100 mg/kg) [%]",% Reduction PTEN RNA ([5]; 3.2 mg/kg single i.p.) [%],% Reduction PTEN RNA ([5]; 10 mg/kg single i.p.) [%],% Reduction PTEN RNA ([5]; 32 mg/kg single i.p.) [%],% Reduction PTEN RNA ([5]; 100 mg/kg single i.p.) [%],also measured
Cas Uas Tds Ads Gds Cds Ads Cds Tds Gds Gds Cds Cas Ua [ISIS 396006],47,77,95,97,27 IU/L and 19 IU/L and 17 IU/L and 24 IU/L,18 IU/L and 22 IU/L and 19 IU/L and 20 IU/L,24 IU/L and 19 IU/L and 15 IU/L and 23 IU/L,28 IU/L (2×) and 23 IU/L (2×),100,101,101,100,95,100,97,120,–,–,–,–,–
^mCjs Tjs Tds Ads Gds Cds Ads Cds Tds Gds Gds Cds ^mCjs Tj [ISIS 443394],–,–,–,–,–,–,–,–,–,–,–,–,–,–,–,–,16,39,68,89,"ED50 [5]: 13.5 mg/kg; ALT levels - Individual animals ([6]; 3.2 mg/kg): 28 IU/L and 26 IU/L and 30 IU/L and 69 IU/L; ALT levels - Individual animals ([6]; 10 mg/kg): 55 IU/L and 28 IU/L and 32 IU/L (2×); ALT levels - Individual animals ([6]; 32 mg/kg): 55 IU/L and 25 IU/L (2×) and 28 IU/L; ALT levels - Individual animals ([6]; 100 mg/kg): 23 IU/L (2×) and 44 IU/L and 18 IU/L; % pre-dose wt ([7]; 3.2 mg/kg): 102%; % pre-dose wt ([7]; 10 mg/kg): 102%; % pre-dose wt ([7]; 32 mg/kg): 101%; % pre-dose wt ([7]; 100 mg/kg): 101%; spleen weight, % Control ([8]; 3.2 mg/kg): 106%; spleen weight, % Control ([8]; 10 mg/kg): 96%; spleen weight, % Control ([8]; 32 mg/kg): 97%; spleen weight, % Control ([8]; 100 mg/kg): 98%"
^mCas Tas Tds Ads Gds Cds Ads Cds Tds Gds Gds Cds ^mCas Ta [ISIS 435854],48,73,94,95,15 IU/L and 22 IU/L and 20 IU/L and 11 IU/L,23 IU/L and 21 IU/L and 33 IU/L and 28 IU/L,24 IU/L and 29 IU/L and 16 IU/L and 46 IU/L,1575 IU/L and 854 IU/L and 1665 IU/L and 3948 IU/L,99,102,102,94,112,87,115,160,–,–,–,–,"Serum ALT ([2]; highest dose): elevated; body weight ([3]; highest dose): some weight loss; spleen weight compared to control and to the non-methylated compound ([4]; mouse, in vivo): marked increase"
Cxs Uxs Tds Ads Gds Cds Ads Cds Tds Gds Gds Cds Cxs Ux [ISIS 445544],–,–,–,–,–,–,–,–,–,–,–,–,–,–,–,–,31,72,93,95,"ED50 [5]: 4.9 mg/kg; ALT levels - Individual animals ([6]; 3.2 mg/kg): 21 IU/L and 28 IU/L and 30 IU/L and 36 IU/L; ALT levels - Individual animals ([6]; 10 mg/kg): 23 IU/L and 33 IU/L and 20 IU/L and 36 IU/L; ALT levels - Individual animals ([6]; 32 mg/kg): 23 IU/L and 38 IU/L and 19 IU/L and 22 IU/L; ALT levels - Individual animals ([6]; 100 mg/kg): 977 IU/L and 1061 IU/L and 88 IU/L and 133 IU/L; % pre-dose wt ([7]; 3.2 mg/kg): 103%; % pre-dose wt ([7]; 10 mg/kg): 101%; % pre-dose wt ([7]; 32 mg/kg): 102%; % pre-dose wt ([7]; 100 mg/kg): 98%; spleen weight, % Control ([8]; 3.2 mg/kg): 98%; spleen weight, % Control ([8]; 10 mg/kg): 92%; spleen weight, % Control ([8]; 32 mg/kg): 101%; spleen weight, % Control ([8]; 100 mg/kg): 109%"
